# According to patent publication US20160272992A1, “PROTECTION OF PLANTS AGAINST OXIDATIVE STRESS” (priority 2013, published 2016):
# Legend:
# [1] = test system: SIM/SMR promoters; experiment: SIM/SMR promoter:GUS transcriptional reporter lines; type: in vivo, Arabidopsis thaliana
# Excerpt: SIM/SMR promoter sequences were amplified from genomic DNA by PCR using the primers described in Table 5. The product fragments were created with the Pfu DNA Polymerase Kit (Promega, Catalog #M7745), and were cloned into a pDONR P4-Plr entry vector by BP recombination cloning and subsequently transferred into the pMK7S*NFml4GW,0 destination vector by LR cloning, resulting in a transcriptional fusion between the promoter of the SMR genes and the nlsGFP-GUS fusion gene (Karimi et al., 2007). For the overexpression constructs, the SMR coding regions were amplified using primers described in Table 5, and cloned into the pDONR221 vector by BP recombination cloning and subsequently transferred into the pK2GW7 destination vector (Kamimi et al., 2002) by LR cloning. All constructs were transferred into the Agrobacterium tumefaciens C58C1RifR strain harboring the pMP90 plasmid. The obtained Agrobacterium strains were used to generate stably transformed Arabidopsis lines with the floral dip transformation method (Clough and Bent, 1998). Transgenic plants were obtained on kanamycin-containing medium and later transferred to soil for optimal seed production.
# Complete seedlings or tissue cuttings were stained in multiwell plates (Falcon 3043; Becton Dickinson). GUS assays were performed as described by Beeckman and Engler (1994). Samples mounted in lactic acid were observed and photographed with a stereomicroscope (Olympus BX51 microscope) or with a differential interference contrast (DIC) microscope (Leica).
# To confirm involvement of SIM/SMR genes in the genotoxic stress response, transcriptional reporter lines containing the putative upstream promoter sequences were constructed for all. After selection of representative reporter lines, one-week-old seedlings were transferred to control medium, or medium supplemented with HU (resulting into stalled replication forks) or bleomycin (causing DSBs).
# [2] = test system: root meristem material of seedlings; details: 0.3 μg/mL bleomycin for 24 hours
# Description: Seeds were plated on sterilized membranes and grown under a 16-hour light/8-hour dark regime at 21° C. After 2 days of germination and 5 days of growth, the membrane was transferred to MS medium containing 0.3 μg/mL bleomycin for 24 hours. Triplicate batches of root meristem material seedlings were harvested for total RNA preparation using the RNEASY® plant mini kit (Qiagen). Each of the different root tip RNA extracts were hybridized to 12 AFFYMETRIX® Arabidopsis Gene 1.0 ST Arrays according to manufacturer's instructions at the Nucleomics Core Facility (Leuven, Belgium; World Wide Web at nucleomics.be). Raw data were processed with the RMA algorithm (Irizarry et al., 2003) using the AFFYMETRIX® Power Tools and subsequently subjected to a Significance Analysis of Microarray (SAM) analysis with “MultiExperiment Viewer 4” (MeV4) of The Institute for Genome Research (TIGR) (Tusher et al., 2001). The imputation engine was set as 10-nearest neighbor imputer and the number of permutations was 100. Expression values were obtained by log 2-transforming the average value of the normalized signal intensities of the triplicate samples. Fold changes were obtained using the expression values of the treatment relative to the control samples. Genes with Q-values<0.1 and fold change>1.5 or <0.666 were retained for further analysis.
# [3] = root meristem, treatment relative to control
substance,measurement,setting,value
bleomycin,induction of SMR6 reporter in root tips,"[1]; one-week-old seedlings, 0.3 μg/mL bleomycin, GUS assay after 24 hours",weak cell-specific induction
same,induction of SMR5 and SMR7 GUS reporters in the proliferating leaf,[1]; treated for 24 hours,induced
same,"Bleomycin fold change, AT1G07500 (Siamese-related 5)",[2]; [3],1.595
same,"Bleomycin fold change, AT1G13330 (Hop2 homolog)",[2]; [3],1.580
same,"Bleomycin fold change, AT1G17460 (TRF-like 3)",[2]; [3],1.681
same,"Bleomycin fold change, AT1G49030 (PLAC8 family protein)",[2]; [3],2.653
same,"Bleomycin fold change, AT2G18600 (Ubiquitin-conjugating enzyme family protein)",[2]; [3],1.972
same,"Bleomycin fold change, AT2G45460 (SMAD/FHA domain-containing protein)",[2]; [3],1.575
same,"Bleomycin fold change, AT2G46610 (RNA-binding RRM/RBD/RNP motifs family protein)",[2]; [3],1.546
same,"Bleomycin fold change, AT3G07800 (Thymidine kinase)",[2]; [3],2.759
same,"Bleomycin fold change, AT3G25250 (AGC kinase family protein)",[2]; [3],1.517
same,"Bleomycin fold change, AT3G27060 (Ferritin/ribonucleotide reductase-like family protein)",[2]; [3],1.970
same,"Bleomycin fold change, AT3G27620 (alternative oxidase 1C)",[2]; [3],1.883
same,"Bleomycin fold change, AT3G27950 (GDSL-like Lipase/Acylhydrolase superfamily protein)",[2]; [3],4.012
same,"Bleomycin fold change, AT4G02390 (Poly(ADP-ribose) polymerase)",[2]; [3],2.663
same,"Bleomycin fold change, AT4G04750 (Major facilitator superfamily protein)",[2]; [3],1.689
same,"Bleomycin fold change, AT4G05370 (BCS1 AAA-type ATPase)",[2]; [3],1.807
same,"Bleomycin fold change, AT4G15480 (UDP-Glycosyltransferase superfamily protein)",[2]; [3],2.394
same,"Bleomycin fold change, AT4G21070 (Breast cancer susceptibility1)",[2]; [3],2.386
same,"Bleomycin fold change, AT4G22960 (Unknown function DUF544)",[2]; [3],2.282
same,"Bleomycin fold change, AT5G03780 (TRF-like 10)",[2]; [3],1.600
same,"Bleomycin fold change, AT5G14920 (Gibberellin-regulated family protein)",[2]; [3],2.122
same,"Bleomycin fold change, AT5G20850 (RAS associated with diabetes protein 51)",[2]; [3],1.765
same,"Bleomycin fold change, AT5G24280 (Gamma-irradiation and mitomycin c induced 1)",[2]; [3],2.584
same,"Bleomycin fold change, AT5G25810 (Integrase-type DNA-binding superfamily protein)",[2]; [3],1.573
same,"Bleomycin fold change, AT5G40840 (Rad21/Rec8-like family protein)",[2]; [3],1.692
same,"Bleomycin fold change, AT5G48720 (X-ray induced transcript 1)",[2]; [3],2.228
same,"Bleomycin fold change, AT5G49110 (unknown protein)",[2]; [3],1.562
same,"Bleomycin fold change, AT5G49480 (Ca2+-binding protein 1)",[2]; [3],1.580
same,"Bleomycin fold change, AT5G55490 (Gamete expressed protein 1)",[2]; [3],2.407
same,"Bleomycin fold change, AT5G60100 (pseudo-response regulator 3)",[2]; [3],1.801
same,"Bleomycin fold change, AT5G60250 (Zinc finger C3HC4-type RING finger family protein)",[2]; [3],2.352
same,"Bleomycin fold change, AT5G64060 (NAC domain containing protein 103)",[2]; [3],2.153
same,"Bleomycin fold change, AT5G66130 (RADIATION SENSITIVE 17)",[2]; [3],1.627
same,"Bleomycin fold change, AT5G66985 (unknown protein)",[2]; [3],1.612
same,induction of SMR7 (At3g27630) in the bleomycin experiment,[2]; Aragene array,5.68 fold
